From patent publication US6355681B2, “Glycine substitutes and precursors for treating a psychosis” (Glytech, Inc., priority 1995, dated 2002)
Where two headings read alike, the source gives them in different places.

How the values were obtained:
[1] = target: T1, GLYT1-mediated synaptosomal glycine transport (Rattus norvegicus, UniProt P28572); test: Inhibition of [3H]glycine uptake in P2 synaptosomal fractions; type: biochemical, Sprague-Dawley rats; details: 100 μg/ml
T1 construct: Synaptosomal P2 fractions were prepared from cerebral cortex+hippocampus of Sprague-Dawley rats; from tissue; host or cells: rat cerebral cortex + hippocampus, P2 synaptosomal fraction
T1 sequence (P28572 1-638): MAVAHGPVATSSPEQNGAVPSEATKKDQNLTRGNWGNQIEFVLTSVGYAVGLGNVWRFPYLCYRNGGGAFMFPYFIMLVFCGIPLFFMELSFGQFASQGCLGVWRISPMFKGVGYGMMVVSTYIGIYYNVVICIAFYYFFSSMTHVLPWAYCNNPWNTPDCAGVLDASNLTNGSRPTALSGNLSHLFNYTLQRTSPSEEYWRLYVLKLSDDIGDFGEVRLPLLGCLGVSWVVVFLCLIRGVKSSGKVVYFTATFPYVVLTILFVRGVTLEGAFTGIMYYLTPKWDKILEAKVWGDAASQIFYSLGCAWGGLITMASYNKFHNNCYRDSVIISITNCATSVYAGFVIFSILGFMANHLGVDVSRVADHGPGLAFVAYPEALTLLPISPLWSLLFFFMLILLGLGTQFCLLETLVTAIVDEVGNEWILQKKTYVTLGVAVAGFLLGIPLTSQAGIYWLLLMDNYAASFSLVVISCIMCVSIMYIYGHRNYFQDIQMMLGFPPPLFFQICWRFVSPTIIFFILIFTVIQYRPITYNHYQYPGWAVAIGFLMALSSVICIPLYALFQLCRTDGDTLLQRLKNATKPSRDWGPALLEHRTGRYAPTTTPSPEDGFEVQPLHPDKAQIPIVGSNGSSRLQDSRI
Description: Synaptosomal P2 fractions were prepared from cerebral cortex+hippocampus of Sprague-Dawley rats (200-250 g). Brain tissue was homogenized in 0.32 M sucrose in Tris-HCl buffer (pH 7.4), and centrifuged at 1,000×g for 10 min at 4° C. in a Sorvall 5C centrifuge. The supernatant was then centrifuged at 14,000×g for 10 min and the pellet resuspended in artificial CSF having the following composition (mM): NaCl, 125; KCl, 3; MgSO4, 1.2; CaCl2, 1.2; NaH2PO4, 1; NaHCO3, 22; glucose, 10. Homogenate was aerated with 95% O2/5% CO2 until use. 1 ml aliquots of homogenate were preincubated with specific concentrations of glycineamide derivatives, following which incubation was initiated by the addition of 10 μl of 10 μM [^3H]glycine (DuPont/NEN or Sigma, spec. act.≈45 Ci/mmol) to obtain a final concentration of 100 nM. Nonspecific binding was determined in the presence of 10 mM sarcosine. Following 5 min, incubation was terminated by filtration under reduced pressure using a Brandel 24-well cell harvester and Whatman GF-B filters. Radioactivity was determined by scintillation counter with approximate efficiency of 50%.

[2] = system: PCP-induced hyperactivity; test: Inhibition of PCP-induced locomotor hyperactivity; type: in vivo, BALB/c mice; details: for inhibition of PCP-induced hyperactivity: 100 mg/kg i.p. pretreatment, summed activity over 90 min
Description: (§1) Behavioral studies were performed using BALB/c mice (25 g) of either sex. Rodent activity was monitored using a photocell-based activity meter (Columbus Instruments Auto-Track System, Columbus, Ohio). Animals were placed in test cages and allowed to accommodate overnight. […] 30 min. after pretreatment, animals were injected with either PCP (5 mg/kg i.p.) or amphetamine (5 mg/kg s.c.). Activity was then monitored for an additional 90 minutes. For statistical analyses, summed activity over the 90 min. following PCP/amphetamine injection was used as a measure of drug-induced hyperactivity.

[3] = system: amphetamine-induced hyperactivity; test: Effect on amphetamine-induced locomotor hyperactivity; type: in vivo, BALB/c mice; details: GDA 50 mg/kg i.p.; amphetamine 5 mg/kg
Description: as §1

[4] = system: PCP-induced hyperactivity; details: cited from earlier work
[5] = Double blind, placebo-controlled crossover study of D-cycloserine in schizophrenia (PANSS); type: in vivo, human; details: D-cycloserine 50 mg/day, 6 weeks

## CCCCCCCCCCCNC(=O)CN [G11A, glycylundecylamide]
[1]
  effect on GLYT1-mediated transport at single fixed concentration: significant inhibition

## CCCCCCCCCCCCNC(=O)CN [GDA, glycyldodecylamide]
[2]; 50 mg/kg, PCP 5 mg/kg i.p.
  PCP-induced hyperactivity, % of control (PCP alone) levels: below 70 % of control
[2]; PCP 5 mg/kg i.p.
  inhibition of PCP-induced hyperactivity: Significant reductions
[2]; 100 mg/kg, PCP 5 mg/kg i.p.
  PCP-induced hyperactivity, % of control (PCP alone) levels: below 50 % of control
[2]; GDA 50 mg/kg i.p., PCP 5 mg/kg i.p.
  effect on hyperactivity induced by PCP: significantly reduced
[2]; GDA pretreatment 50 mg/kg i.p.
  effect on basal activity: did not significantly affect
[3]
  effect on hyperactivity induced by amphetamine: not significantly altered
[1]
  effect on GLYT1-mediated transport at single fixed concentration: significant inhibition
[4]; early preclinical studies
  potency in reversing PCP-induced hyperactivity relative to glycine (Toth et al., 1986): significantly more potent than glycine
[4]; i.p., prior studies
  doses inhibiting PCP-induced hyperactivity (prior studies): 50 to 200 mg/kg

## CCCCCCCCCCCCCNC(=O)CN [G13A, glycyltriscadecylamide]
[2]; PCP 5 mg/kg i.p.
  inhibition of PCP-induced hyperactivity: Significant reductions
[1]
  effect on GLYT1-mediated transport at single fixed concentration: significant inhibition

## NCC(=O)O [glycine]
Beginning to end of glycine treatment
  change in positive symptoms (PANSS): did not change significantly
End of glycine treatment (beginning 25.7±7.0), mean±SD
  positive symptoms score at end of treatment: 22.0±4.0 points
End of glycine treatment (from 56.0±19.4), mean±SD
  general psychopathology score at end of treatment: 43.0±13.8 points
Glycine 0.8 g/kg/day, 6 weeks
  decrease in general psychopathology symptoms: 23.2%
  mean reduction in negative symptoms: 28.5%
Glycine 0.8 g/kg/day, 6 weeks, 7 neuroleptic-resistant schizophrenia subjects, mean±SD
  reduction in negative symptoms (PANSS): 11.3±3.6 point
Glycine 0.8 g/kg/day, 6 weeks, mean±SD
  change in general psychopathology (PANSS): 13.0±7.7 point
Same subjects, change scores compared across the two trials
  degree of reduction in negative symptoms relative to D-cycloserine treatment: 3 fold

## CCCCCCCCCCNC(=O)CN [G10A, glycyldecylamide]
[2]; PCP 5 mg/kg i.p.
  inhibition of PCP-induced hyperactivity: Significant reductions
[1]
  effect on GLYT1-mediated transport at single fixed concentration: significant inhibition

## CCCCCCCCNC(=O)CN [G8A, glycyloctylamide]
[1]
  effect on GLYT1-mediated transport at single fixed concentration: no significant effect

## glycylhexylamide [G6A]
[2]; PCP 5 mg/kg i.p.
  inhibition of PCP-induced hyperactivity: did not significantly inhibit
[1]
  effect on GLYT1-mediated transport at single fixed concentration: significant potentiation
[4]; literature
  inhibition of PCP-induced hyperactivity (early study, Toth et al., 1986): not to significantly inhibit

## N[C@@H]1CONC1=O [D-cycloserine]
[5]
  change in general psychopathology scores (PANSS): did not change significantly
  change in positive symptoms (PANSS): did not change significantly
  mean decrease in negative symptoms: 9.2%
[5]; mean±SD
  reduction in negative symptoms (PANSS): 3.6±3.7 point
